This assay has as its target T1, squalene synthase (Homo sapiens, UniProt P37268).
T1 construct: PREPARATION OF HUMAN HEPG2 CELL ENZYME; host or cells: HepG2 (human hepatoblastoma), sonicated cell extract
T1 sequence (P37268 1-417): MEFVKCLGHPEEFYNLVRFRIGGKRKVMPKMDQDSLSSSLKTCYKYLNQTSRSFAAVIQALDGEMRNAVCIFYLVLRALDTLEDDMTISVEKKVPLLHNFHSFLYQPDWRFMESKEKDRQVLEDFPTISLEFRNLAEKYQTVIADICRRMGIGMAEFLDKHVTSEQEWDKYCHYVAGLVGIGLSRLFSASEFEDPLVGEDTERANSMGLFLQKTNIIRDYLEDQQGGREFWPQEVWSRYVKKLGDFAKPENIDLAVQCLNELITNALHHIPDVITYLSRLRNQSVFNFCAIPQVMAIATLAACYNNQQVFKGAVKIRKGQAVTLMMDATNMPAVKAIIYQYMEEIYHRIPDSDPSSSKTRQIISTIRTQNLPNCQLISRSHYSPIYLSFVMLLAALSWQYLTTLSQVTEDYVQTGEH
Briefly: Squalene synthase assay with human HepG2 cell enzyme. In kind it is biochemical. The settings on record: HepG2 enzyme preparation, 3 μM 3H-farnesyl pyrophosphate substrate, 30° C., 20 minutes; read-out: IC50 (squalene synthase inhibition). The method, then: The intrinsic squalene synthase inhibitory activity of the compounds of this invention was measured by the standard in vitro protocol described below:
PREPARATION OF HUMAN HEPG2 CELL ENZYME
1. Source: HEPG2 CELL LINE (Liver, hepatoblastoma, Human) ATCC No. HB 8065
Culture Medium: Minimum essential medium (MEM) with non-essential amino acids, sodium pyruvate, and 10% fetal bovine serum. The medium was changed twice weekly. […] The growth medium is prepared as listed below.
48 hrs. prior to harvest, switch cells grown in MEM with Fetal Calf serum to MEM with 10% delipidated serum.
Remove medium, wash with PBS, add fresh trypsin (0.25%)-EDTA (0.02%) with Hank's Balanced Salt solution, rinse and remove. Incubate flask at 37° C. until cells detach. Add 6 mL of MEM medium per flask to suspend cells and combine into centrifuge tube. […]
For each reaction, 55 μL of buffer mixture was taken with 5 μL of an inhibitor solution in DMSO and 10 μL of diluted enzyme (1 to 250 as described in the enzyme preparation; the final protein concentration of enzyme in the assay is 2 μg per mL.). […] 150 μL of heptane layer was then removed into a 96 deep well plate and mixed with 150 μL of scintillation fluid and the radioactivity was determined by liquid scintillation counting. […]
IC50 values were determined by plotting the log of the concentration of the test compound versus the percentage inhibition. […]

Each structure is given as a SMILES string.

The term IC50 denotes the point on the concentration scale where inhibition reaches its midpoint. Consider `C=C(CCC(=O)C(O)C(OC(=O)/C=C/C(C)CC(C)CC)C(=O)O)C(OC(C)=O)C(C)Cc1ccccc1` (stereo not shown) [Composition A], for which the 50% inhibitory concentration (IC50) was below 2000 nM.
